According to patent US20260297060A1, “COMPOUNDS FOR THE DEGRADATION OF MUTANT BRAF” (C4 THERAPEUTICS, INC., priority 2023, published 2026):

Test system: A375-NRAS^Q61K cells
Assay: CTGlo Cell Viability Assay, A375-NRAS^Q61K (A375.11) cells, 96 hours
Assay type: cell-based, human
Conditions: A375.11 (A375-NRAS^Q61K) cells
Procedure, shortened: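 A375 cells carrying BRAF V600E and NRAS Q61K were seeded at 250 cells/well with a 10-point half-log dose series (max 10 μM final). After 96 h at 37 °C, viability was read as ATP luminescence (CellTiter-Glo), background-subtracted and normalized to DMSO (100%). GI50 from 4-parameter fit; Emax is the lowest % viability.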

[1] = Homo sapiens, 96 h, lowest % viability achieved

Row | SMILES | GI50 | CTGlo A375.11 96 hours Emax (lowest % viability achieved) | GI50 (Homo sapiens, 96 h) | Emax [1]
1 | CCN(C)S(=O)(=O)Nc1ccc(F)c(Oc2ccc3ncn(C4CC5(C4)CN(C4CCC(c6cc7c(cc6F)c(N6CCC(=O)NC6=O)nn7C)CC4)C5)c(=O)c3c2)c1C#N (single isomer, unassigned) [Compound 204, 6-[2-cyano-3-[[ethyl(methyl)sulfamoyl]amino]-6-fluoro-phenoxy]-3-[2-[4-[3-(2,4-dioxohexahydropyrimidin-1-yl)-5-fluoro-1-methyl-indazol-6-yl]cyclohexyl]-2-azaspiro[3.3]heptan-6-yl]-4-oxo-quinazoline] | < 1 µM | ** (<90% and >50%) | – | –
2 | CO[C@@H]1CCN(S(=O)(=O)Nc2ccc(F)c(Oc3ccc4ncn(C5CC6(CCN(C7CCC(c8cc9c(cc8F)c(N8CCC(=O)NC8=O)nn9C)CC7)CC6)C5)c(=O)c4c3)c2C#N)C1 (single isomer, unassigned) [Compound 101] | – | – | < 1 µM | < 50%
3 | CCN(C)S(=O)(=O)Nc1ccc(F)c(Oc2ccc3ncn([C@@H]4CCC5(CCN(C6CCC(c7cc8c(cc7F)c(N7CCC(=O)NC7=O)nn8C)CC6)CC5)C4)c(=O)c3c2)c1C#N (single isomer, unassigned) [Compound 31] | – | – | 1 to 10 µM | < 50%
4 | CC(C)S(=O)(=O)Nc1ccc(F)c(Oc2ccc3ncn([C@H]4COC5(CCN(C6CC7(C6)CN(c6cc8c(cc6F)c(N6CCC(=O)NC6=O)nn8C)C7)CC5)C4)c(=O)c3c2)c1C#N [Compound 134, N-[2-cyano-3-[3-[(3R)-8-[2-[3-(2,4-dioxohexahydropyrimidin-1-yl)-5-fluoro-1-methyl-indazol-6-yl]-2-azaspiro[3.3]heptan-6-yl]-1-oxa-8-azaspiro[4.5]decan-3-yl]-4-oxo-quinazolin-6-yl]oxy-4-fluoro-phenyl]propane-2-sulfonamide] | – | – | < 1 µM | 50 to 90%
5 | CCN(C)S(=O)(=O)Nc1ccc(F)c(Oc2ccc3ncn([C@@H]4COC5(CCN(C6CCC(c7ccc(NC8CCC(=O)NC8=O)cc7F)CC6)CC5)C4)c(=O)c3c2F)c1C#N (single isomer, unassigned) [Compound 52] | > 10 µM | – | – | 50 to 90%
6 | CCN(C)S(=O)(=O)Nc1ccc(F)c(Oc2ccc3ncn(CC4CCN(C5CCC(c6cc7c(cc6F)c(N6CCC(=O)NC6=O)nn7C)CC5)CC4)c(=O)c3c2)c1C#N (single isomer, unassigned) [Compound 126, 6-[2-cyano-3-[[ethyl(methyl)sulfamoyl]amino]-6-fluoro-phenoxy]-3-[[1-[4-[3-(2,4-dioxohexahydropyrimidin-1-yl)-5-fluoro-1-methyl-indazol-6-yl]cyclohexyl]-4-piperidyl]methyl]-4-oxo-quinazoline] | – | – | 1 to 10 µM | 50 to 90%
7 | CCN(C)S(=O)(=O)Nc1ccc(F)c(Oc2ccc3ncn([C@H]4COC5(CCN(C6CCC(c7ccc(NC8CCC(=O)NC8=O)cc7F)CC6)CC5)C4)c(=O)c3c2)c1F (single isomer, unassigned) [Compound 78] | – | – | < 1 µM | < 50%
8 | CCN(C)S(=O)(=O)Nc1ccc(F)c(Oc2ccc3ncn([C@H]4COC5(CCN(C6CCC(c7cc8c(cc7F)c(N7CCC(=O)NC7=O)nn8C)CC6O)CC5)C4)c(=O)c3c2)c1C#N (single isomer, unassigned) [Compound 43] | – | – | < 1 µM | 50 to 90%
9 | COC1CN(S(=O)(=O)Nc2ccc(F)c(Oc3ccc4ncn([C@H]5COC6(CCN(C7CC8(C7)CN(c7cc9c(cc7F)c(N7CCC(=O)NC7=O)nn9C)C8)CC6)C5)c(=O)c4c3)c2C#N)C1 [Compound 246, N-[2-cyano-3-[3-[(3R)-8-[2-[3-(2,4-dioxohexahydropyrimidin-1-yl)-5-fluoro-1-methyl-indazol-6-yl]-2-azaspiro[3.3]heptan-6-yl]-1-oxa-8-azaspiro[4.5]decan-3-yl]-4-oxo-quinazolin-6-yl]oxy-4-fluoro-phenyl]-3-methoxy-azetidine-1-sulfonamide] | – | – | < 1 µM | < 50%
10 | CCN(C)S(=O)(=O)Nc1ccc(F)c(Oc2ccc3ncn(C4CC5(CCN(C6CCC(c7ccc(NC8CCC(=O)NC8=O)cc7F)CC6)CC5)C4)c(=O)c3c2)c1C#N (single isomer, unassigned) [Compound 6, 6-[2-cyano-3-[[ethyl(methyl)sulfamoyl]amino]-6-fluoro-phenoxy]-3-[7-[4-[4-[(2,6-dioxo-3-piperidyl)amino]-2-fluoro-phenyl]cyclohexyl]-7-azaspiro[3.5]nonan-2-yl]-4-oxo-quinazoline] | – | – | < 1 µM | < 50%
11 | Cn1nc(N2CCC(=O)NC2=O)c2cc(F)c(N3CC4(CC(N5CCC6(CC5)CC(n5cnc7ccc(Oc8c(F)ccc(NS(=O)(=O)C9CCCC9)c8C#N)cc7c5=O)C6)C4)C3)cc21 [Compound 250, N-[2-cyano-3-[3-[7-[2-[3-(2,4-dioxohexahydropyrimidin-1-yl)-5-fluoro-1-methyl-indazol-6-yl]-2-azaspiro[3.3]heptan-6-yl]-7-azaspiro[3.5]nonan-2-yl]-4-oxo-quinazolin-6-yl]oxy-4-fluoro-phenyl]cyclopentanesulfonamide] | – | – | < 1 µM | < 50%
12 | CCN(C)S(=O)(=O)Nc1ccc(F)c(Oc2ccc3ncn(C4CC5(CCN(C6CC7(C6)CN(c6cc8c(cc6F)c(N6CCC(=O)NC6=O)nn8C)C7)CC5)C4)c(=O)c3c2)c1C#N (stereo not drawn) [Compound 141, 6-[2-cyano-3-[[ethyl(methyl)sulfamoyl]amino]-6-fluoro-phenoxy]-3-[7-[2-[3-(2,4-dioxohexahydropyrimidin-1-yl)-5-fluoro-1-methyl-indazol-6-yl]-2-azaspiro[3.3]heptan-6-yl]-7-azaspiro[3.5]nonan-2-yl]-4-oxo-quinazoline] | – | – | < 1 µM | 50 to 90%
13 | CCN(C)S(=O)(=O)Nc1ccc(F)c(Oc2ccc3ncc(C4CC5(CCN(C6CCC(c7cc8c(cc7F)c(N7CCC(=O)NC7=O)nn8C)CC6)CC5)C4)nc3c2)c1C#N (single isomer, unassigned) [Compound 180, 7-[2-cyano-3-[[ethyl(methyl)sulfamoyl]amino]-6-fluoro-phenoxy]-2-[7-[4-[3-(2,4-dioxohexahydropyrimidin-1-yl)-5-fluoro-1-methyl-indazol-6-yl]cyclohexyl]-7-azaspiro[3.5]nonan-2-yl]quinoxaline] | – | – | < 1 µM | < 50%
14 | CCN(C)S(=O)(=O)Nc1ccc(F)c(Nc2ccc3ncn([C@H]4COC5(CCN(C6CCC(c7cc8c(cc7F)c(N7CCC(=O)NC7=O)nn8C)CC6)CC5)C4)c(=O)c3c2F)c1C#N (single isomer, unassigned) [Compound 67] | – | – | < 1 µM | < 50%
15 | CCN(C)S(=O)(=O)Nc1ccc(F)c(Oc2ccc3ncn([C@H]4COC5(CCC(N6CC7(CN(c8ccc(NC9CCC(=O)NC9=O)cc8F)C7)C6)CC5)C4)c(=O)c3c2)c1C#N (stereo partly drawn) [Compound 30, 6-[2-cyano-3-[[ethyl(methyl)sulfamoyl]amino]-6-fluoro-phenoxy]-3-[(3R)-8-[6-[4-[(2,6-dioxo-3-piperidyl)amino]-2-fluoro-phenyl]-2,6-diazaspiro[3.3]heptan-2-yl]-1-oxaspiro[4.5]decan-3-yl]-4-oxo-quinazoline] | – | – | 1 to 10 µM | < 50%
16 | CCN(C)S(=O)(=O)Nc1ccc(F)c(Oc2ccc3ncn(C4CC5(CCN(C6CCC(c7cc8c(cc7F)c(N7CCC(=O)NC7=O)nn8C)CC6)CC5)C4)c(=O)c3c2)c1F (single isomer, unassigned) [Compound 178, 3-[7-[4-[3-(2,4-dioxohexahydropyrimidin-1-yl)-5-fluoro-1-methyl-indazol-6-yl]cyclohexyl]-7-azaspiro[3.5]nonan-2-yl]-6-[3-[[ethyl(methyl)sulfamoyl]amino]-2,6-difluoro-phenoxy]-4-oxo-quinazoline] | – | – | 1 to 10 µM | 50 to 90%
17 | CCN(C)S(=O)(=O)Nc1ccc(F)c(Oc2ccc3ncc([C@H]4COC5(CCN(C6CCC(c7cc8c(cc7F)c(N7CCC(=O)NC7=O)nn8C)CC6)CC5)C4)nc3c2)c1C#N (single isomer, unassigned) [Compound 48] | – | – | < 1 µM | < 50%
18 | CO[C@H]1CCN(S(=O)(=O)Nc2ccc(F)c(Oc3ccc4ncn([C@H]5COC6(CCN(C7CC8(C7)CN(c7cc9c(cc7F)c(N7CCC(=O)NC7=O)nn9C)C8)CC6)C5)c(=O)c4c3)c2C#N)C1 [Compound 157, (3S)-N-[2-cyano-3-[3-[(3R)-8-[2-[3-(2,4-dioxohexahydropyrimidin-1-yl)-5-fluoro-1-methyl-indazol-6-yl]-2-azaspiro[3.3]heptan-6-yl]-1-oxa-8-azaspiro[4.5]decan-3-yl]-4-oxo-quinazolin-6-yl]oxy-4-fluoro-phenyl]-3-methoxy-pyrrolidine-1-sulfonamide] | – | – | < 1 µM | 50 to 90%
19 | CC(C)S(=O)(=O)Nc1ccc(F)c(Oc2ccc3ncn(C4CC5(CCN(C6CCC(c7cc8c(cc7F)c(N7CCC(=O)NC7=O)nn8C)CC6)CC5)C4)c(=O)c3c2)c1C#N (single isomer, unassigned) [Compound 95, N-[2-cyano-3-[3-[7-[4-[3-(2,4-dioxohexahydropyrimidin-1-yl)-5-fluoro-1-methyl-indazol-6-yl]cyclohexyl]-7-azaspiro[3.5]nonan-2-yl]-4-oxo-quinazolin-6-yl]oxy-4-fluoro-phenyl]propane-2-sulfonamide] | – | – | < 1 µM | 50 to 90%
20 | CCN(C)S(=O)(=O)Nc1ccc(F)c(Oc2ccc3ncn([C@@H]4C[C@@H]5CN(C6CCC(c7ccc(NC8CCC(=O)NC8=O)cc7F)CC6)C[C@@H]5C4)c(=O)c3c2)c1C#N (single isomer, unassigned) [Compound 21] | – | – | 1 to 10 µM | 50 to 90%
21 | CC(C)S(=O)(=O)Nc1ccc(F)c(Oc2ccc3ncn([C@H]4COC5(CCN(C6CCC(c7ccc(NC8CCC(=O)NC8=O)cc7F)CC6)CC5)C4)c(=O)c3c2)c1C#N (single isomer, unassigned) [Compound 92] | – | – | < 1 µM | < 50%
